Measured values as given in ChEMBL document CHEMBL1146136, “Optimization of 2,4-diaminopyrimidines as GHS-R antagonists: side chain exploration” (Bioorg Med Chem Lett, 2006).

Legend:
[1] = biological target: T1, Growth hormone secretagogue receptor type 1 (Homo sapiens, UniProt Q92847); test: Inhibition of human GHS receptor by FLIPR; format: functional
[2] = biological target: T2, Dihydrofolate reductase (Homo sapiens) (UniProt P00374); test: Inhibition of human DHFR receptor at 10 uM
T2 sequence (whole entry): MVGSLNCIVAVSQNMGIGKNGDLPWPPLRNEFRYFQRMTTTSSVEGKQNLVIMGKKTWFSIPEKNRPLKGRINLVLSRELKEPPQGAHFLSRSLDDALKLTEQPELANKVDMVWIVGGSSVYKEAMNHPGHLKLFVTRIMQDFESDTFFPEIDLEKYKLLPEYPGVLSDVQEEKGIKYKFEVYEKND

[3] = biological target: T1, Growth hormone secretagogue receptor type 1; test: Inhibition of human GHS receptor by binding assay
[4] = biological target: T2, Dihydrofolate reductase (Homo sapiens); test: Inhibition of human DHFR receptor at 1 uM
[5] = biological target: T2, Dihydrofolate reductase (Homo sapiens); test: Inhibition of human DHFR receptor at 30 uM

T1 sequence (Q92847 whole entry): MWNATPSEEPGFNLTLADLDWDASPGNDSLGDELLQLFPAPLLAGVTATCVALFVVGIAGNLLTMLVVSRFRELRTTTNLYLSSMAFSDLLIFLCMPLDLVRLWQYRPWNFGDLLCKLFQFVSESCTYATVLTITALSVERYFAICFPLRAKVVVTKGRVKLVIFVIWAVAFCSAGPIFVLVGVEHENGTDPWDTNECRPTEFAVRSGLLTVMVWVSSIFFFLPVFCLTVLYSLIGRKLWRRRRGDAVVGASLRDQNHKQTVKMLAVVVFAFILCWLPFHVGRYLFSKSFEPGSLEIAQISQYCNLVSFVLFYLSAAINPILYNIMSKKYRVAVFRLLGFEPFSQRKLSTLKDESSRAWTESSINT

| SMILES | IC50 [1] [nM] | inhibition [2] [%] | IC50 [3] [nM] | inhibition [4] [%] | inhibition [5] [%] |
| --- | --- | --- | --- | --- | --- |
| CCc1nc(N)nc(NC)c1-c1ccc(NCc2ccc(S(C)(=O)=O)cc2)cc1 | 69 | 82 | 37 | 41 | – |
| CS(=O)(=O)c1ccc(CNc2ccc(-c3c(N)nc(N)nc3C3Cc4ccccc4O3)cc2)cc1 (stereo not given) | 38 | – | – | – | – |
| CS(=O)(=O)c1ccc(CNc2ccc(-c3c(N)nc(N)nc3C3CC4CCC3C4)cc2)cc1 (stereo not given) | 137 | 21 | – | 3 | – |
| CCc1nc(N)nc(NCC(C)C)c1-c1ccc(NCc2ccc(S(C)(=O)=O)cc2)cc1 | 2480 | – | 199 | – | – |
| CN(Cc1nc(N)nc(N)c1-c1ccc(NCc2ccc(S(C)(=O)=O)cc2)cc1)c1ccccc1 | 9 | 84 | 2.5 | 42 | – |
| CCc1nc(N)nc(N(CC)CC)c1-c1ccc(NCc2ccc(S(C)(=O)=O)cc2)cc1 | 380 | – | 450 | – | – |
| CS(=O)(=O)c1ccc(CNc2ccc(-c3c(N)nc(N)nc3C3CCCC3)cc2)cc1 | 21 | 97 | – | 73 | – |
| CS(=O)(=O)c1ccc(CNc2ccc(-c3c(N)nc(N)nc3C3CCC3)cc2)cc1 | 14 | – | – | – | – |
| CS(=O)(=O)c1ccc(CNc2ccc(-c3c(N)nc(N)nc3CNCC3CCCC3)cc2)cc1 | 316 | – | 16 | – | – |
| CCCCCCCCc1nc(N)nc(N)c1-c1ccc(NCc2ccc(S(C)(=O)=O)cc2)cc1 | 57 | – | 5.2 | – | – |
| CN(C)Cc1nc(N)nc(N)c1-c1ccc(NCc2ccc(S(C)(=O)=O)cc2)cc1 | 2580 | – | 186 | – | – |
| CNCc1nc(N)nc(N)c1-c1ccc(NCc2ccc(S(C)(=O)=O)cc2)cc1 | 1380 | – | 279 | – | – |
| CS(=O)(=O)c1ccc(CNc2ccc(-c3c(N)nc(N)nc3CN3Cc4ccccc4C3)cc2)cc1 | 34 | – | – | – | – |
| CN(Cc1ccccc1)Cc1nc(N)nc(N)c1-c1ccc(NCc2ccc(S(C)(=O)=O)cc2)cc1 | 69 | – | 4 | – | – |
| CS(=O)(=O)c1ccc(CNc2ccc(-c3c(N)nc(N)nc3CN3CCc4ccccc4C3)cc2)cc1 | 41 | 58 | – | 29 | – |
| CCCCCc1nc(N)nc(N)c1-c1ccc(NCc2ccc(S(C)(=O)=O)cc2)cc1 | 211 | – | 19 | – | – |
| CCc1nc(N)nc(Nc2ccccc2)c1-c1ccc(NCc2ccc(S(C)(=O)=O)cc2)cc1 | > 10000 | – | 700 | – | – |
| CS(=O)(=O)c1ccc(CNc2ccc(-c3c(N)nc(N)nc3COCc3ccccc3)cc2)cc1 | 7.1 | – | 0.3 | – | – |
| CC(C)(C)c1nc(N)nc(N)c1-c1ccc(NCc2ccc(S(C)(=O)=O)cc2)cc1 | 11 | 87 | – | 47 | – |
| CS(=O)(=O)c1ccc(CNc2ccc(-c3c(N)nc(N)nc3[C@@H]3CCCO3)cc2)cc1 | 54 | 25 | – | – | 38 |

| SMILES | IC50 [1] [nM] | inhibition [2] [%] | IC50 [3] [nM] | inhibition [4] [%] | inhibition [5] [%] |
| --- | --- | --- | --- | --- | --- |
| CS(=O)(=O)c1ccc(CNc2ccc(-c3c(N)nc(N)nc3CN)cc2)cc1 | 7160 | – | 634 | – | – |
| CCc1nc(N)nc(NCCO)c1-c1ccc(NCc2ccc(S(C)(=O)=O)cc2)cc1 | 3080 | – | 354 | – | – |
| CS(=O)(=O)c1ccc(CNc2ccc(-c3c(N)nc(N)nc3COCc3cccnc3)cc2)cc1 | 187 | – | 38 | – | – |
| CC(C)=CCOCc1nc(N)nc(N)c1-c1ccc(NCc2ccc(S(C)(=O)=O)cc2)cc1 | 1.9 | – | 0.4 | – | – |
| CCCNc1nc(N)nc(CC)c1-c1ccc(NCc2ccc(S(C)(=O)=O)cc2)cc1 | 237 | – | 151 | – | – |
| CN(Cc1nc(N)nc(N)c1-c1ccc(NCc2ccc(S(C)(=O)=O)cc2)cc1)c1ccc(F)cc1 | 10 | – | – | – | – |
| CCCCNc1nc(N)nc(CC)c1-c1ccc(NCc2ccc(S(C)(=O)=O)cc2)cc1 | 736 | – | 276 | – | – |
| CS(=O)(=O)c1ccc(CNc2ccc(-c3c(N)nc(N)nc3[C@H]3CCCO3)cc2)cc1 | 57 | 84 | – | – | – |
| CCCCCCc1nc(N)nc(N)c1-c1ccc(NCc2ccc(S(C)(=O)=O)cc2)cc1 | 62 | – | 6 | – | – |
| CS(=O)(=O)c1ccc(CNc2ccc(-c3c(N)nc(N)nc3C3COc4ccccc4O3)cc2)cc1 (stereo not given) | 180 | – | – | – | – |
| CCc1nc(N)nc(NCc2ccccc2)c1-c1ccc(NCc2ccc(S(C)(=O)=O)cc2)cc1 | 354 | – | 248 | – | – |
| CC(C)c1nc(N)nc(N)c1-c1ccc(NCc2ccc(S(C)(=O)=O)cc2)cc1 | 14 | – | 5.4 | – | – |
| CCc1nc(N)nc(N(C)C)c1-c1ccc(NCc2ccc(S(C)(=O)=O)cc2)cc1 | 772 | – | 192 | – | – |
| CCNc1nc(N)nc(CC)c1-c1ccc(NCc2ccc(S(C)(=O)=O)cc2)cc1 | > 10000 | – | 244 | – | – |
| CS(=O)(=O)c1ccc(CNc2ccc(-c3c(N)nc(N)nc3CN3CCc4ccccc43)cc2)cc1 | 13 | – | – | – | – |
| CS(=O)(=O)c1ccc(CNc2ccc(-c3c(N)nc(N)nc3CNC3CC3)cc2)cc1 | 945 | – | 65 | – | – |
| CS(=O)(=O)c1ccc(CNc2ccc(-c3c(N)nc(N)nc3CNC3CCCC3)cc2)cc1 | 3430 | – | 122 | – | – |
| CS(=O)(=O)c1ccc(CNc2ccc(-c3c(N)nc(N)nc3[C@@H]3CC4C=CC3C4)cc2)cc1 (stereo not given in full) | 283 | 45 | – | – | – |
| CS(=O)(=O)c1ccc(CNc2ccc(-c3c(N)nc(N)nc3CNCc3ccccc3)cc2)cc1 | 49 | – | 96 | – | – |
| CS(=O)(=O)c1ccc(CNc2ccc(-c3c(N)nc(N)nc3C3CCCCC3)cc2)cc1 | 36 | 50 | – | 16 | – |

| SMILES | IC50 [1] [nM] | inhibition [2] [%] | IC50 [3] [nM] | inhibition [4] [%] | inhibition [5] [%] |
| --- | --- | --- | --- | --- | --- |
| CS(=O)(=O)c1ccc(CNc2ccc(-c3c(N)nc(N)nc3CCC(=O)NCc3cccc(Cl)c3)cc2)cc1 | 5.4 | – | 2 | – | – |
| CC(C)CCOCc1nc(N)nc(N)c1-c1ccc(NCc2ccc(S(C)(=O)=O)cc2)cc1 | 6.8 | 97 | 2.8 | 88 | – |
| CS(=O)(=O)c1ccc(CNc2ccc(-c3c(N)nc(N)nc3C3CC3)cc2)cc1 | 19 | – | – | – | – |
| CS(=O)(=O)c1ccc(CNc2ccc(-c3c(N)nc(N)nc3CNc3ccc(F)cc3)cc2)cc1 | 12 | – | 1.5 | – | – |
| CCc1nc(N)nc(N)c1-c1ccc(NCc2ccc(S(C)(=O)=O)cc2)cc1 | 37 | > 99 | 9.7 | > 99 | – |
| CC(C)Cc1nc(N)nc(N)c1-c1ccc(NCc2ccc(S(C)(=O)=O)cc2)cc1 | 40 | – | 10 | – | – |
| CCc1nc(N)nc(NC2CC2)c1-c1ccc(NCc2ccc(S(C)(=O)=O)cc2)cc1 | > 10000 | – | 601 | – | – |
| Cc1ccc(COCc2nc(N)nc(N)c2-c2ccc(NCc3ccc(S(C)(=O)=O)cc3)cc2)o1 | 9.7 | – | 3.4 | – | – |
| CCc1nc(N)nc(N2CCOCC2)c1-c1ccc(NCc2ccc(S(C)(=O)=O)cc2)cc1 | > 10000 | – | 3250 | – | – |
| CS(=O)(=O)c1ccc(CNc2ccc(-c3c(N)nc(N)nc3[C@H]3CC4C=CC3C4)cc2)cc1 (stereo not given in full) | 66 | 38 | – | – | 55 |
| CC(C)CCNCc1nc(N)nc(N)c1-c1ccc(NCc2ccc(S(C)(=O)=O)cc2)cc1 | 1420 | – | 61 | – | – |
| CCCCc1nc(N)nc(N)c1-c1ccc(NCc2ccc(S(C)(=O)=O)cc2)cc1 | 32 | – | 11 | – | – |
| CS(=O)(=O)c1ccc(CNc2ccc(-c3c(N)nc(N)nc3CNc3ccccc3)cc2)cc1 | 9.1 | – | 5.5 | – | – |
| CS(=O)(=O)c1ccc(CNc2ccc(-c3c(N)nc(N)nc3COCc3ccco3)cc2)cc1 | 9.6 | – | 2.7 | – | – |
| CCCCCCCc1nc(N)nc(N)c1-c1ccc(NCc2ccc(S(C)(=O)=O)cc2)cc1 | 38 | – | 6 | – | – |
| COCc1nc(N)nc(N)c1-c1ccc(NCc2ccc(S(C)(=O)=O)cc2)cc1 | 53 | – | 7.5 | – | – |
| Cc1cc(C)cc(CNC(=O)CCc2nc(N)nc(N)c2-c2ccc(NCc3ccc(S(C)(=O)=O)cc3)cc2)c1 | 3 | 93 | 0.4 | 82 | – |
| CCOC(=O)CCc1nc(N)nc(N)c1-c1ccc(NCc2ccc(S(C)(=O)=O)cc2)cc1 | 82 | – | – | – | – |
